Columns and labels:
Format in all cases: cell-based, human
[1] = system: FU97; experiment: Cell viability drug screen, 12-point dose-response AUC; design: Average Area Under the Viability Curve (AUC), AUC norm value: scale not given here; conditions: FU97 cells, 72 hours
Method in brief: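 Trapezoidal AUC of a 12-point, DMSO-normalized dose-response curve. Luminescent viability was measured after 72 h of exposure at 37° C to half-log serial dilutions (0.5% DMSO control), dosed 24 h after plating FU97 cells at 5×10^3 per well.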

[2] = system: MKN74; experiment: as above; conditions: MKN74 cells, 72 hours
Method in brief: (§1)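 Gastric cancer lines seeded 5×10^3 cells/well, dosed after 24 h with half-log 12-point compound dilutions (DMSO 0.5% control), then 72 h at 37 °C. Viability by luminescence, normalized to DMSO; AUC by trapezoidal method, averaged over repeats.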

[3] = system: NCC20; experiment: as above; conditions: NCC20 cells, 72 hours
Method in brief: as §1

[4] = system: SNU1967; experiment: as above; conditions: SNU1967 cells, 72 hours
Method in brief: as §1

[5] = system: NCC24; experiment: as above; conditions: NCC24 cells, 72 hours
Method in brief: as §1

[6] = system: SNU1; experiment: as above; conditions: SNU1 cells, 72 hours
Method in brief: as §1

[7] = system: NCC59; experiment: as above; conditions: NCC59 cells, 72 hours
Method in brief: as §1

[8] = system: NCC19; experiment: as above; conditions: NCC19 cells, 72 hours
Method in brief: as §1

[9] = system: SNU484; experiment: as above; conditions: 72 hours; for Average Area Under the Viability Curve (AUC), AUC norm value: SNU484 cells (SEM subtype)
Method in brief: as §1

[10] = system: SNU601; experiment: as above; conditions: SNU601 cells, 72 hours
Method in brief: as §1

[11] = system: YCC2; experiment: as above; conditions: YCC2 cells, 72 hours
Method in brief: as §1

[12] = system: YCC3; experiment: as above; conditions: YCC3 cells, 72 hours
Method in brief: as §1

[13] = system: MKN1; experiment: as above; conditions: MKN1 cells, 72 hours
Method in brief: as §1

[14] = system: AGS; experiment: as above; conditions: 72 hours; for Average Area Under the Viability Curve (AUC), AUC norm value: AGS cells (non-SEM subtype)
Method in brief: as §1

[15] = system: SNU668; experiment: as above; conditions: 72 hours; for Average Area Under the Viability Curve (AUC), AUC norm value: SNU668 cells (SEM subtype)
Method in brief: as §1

[16] = system: SNU1750; experiment: as above; conditions: 72 hours; for Average Area Under the Viability Curve (AUC), AUC norm value: SNU1750 cells (SEM subtype)
Method in brief: as §1

[17] = system: MKN45; experiment: as above; conditions: 72 hours; for Average Area Under the Viability Curve (AUC), AUC norm value: MKN45 cells (non-SEM subtype)
Method in brief: as §1

[18] = system: SNU719; experiment: as above; conditions: SNU719 cells, 72 hours
Method in brief: as §1

[19] = system: SNU216; experiment: as above; conditions: 72 hours; for Average Area Under the Viability Curve (AUC), AUC norm value: SNU216 cells (non-SEM subtype)
Method in brief: as §1

[20] = system: MKN28; experiment: as above; conditions: MKN28 cells, 72 hours
Method in brief: as §1

[21] = system: SNU16; experiment: as above; conditions: SNU16 cells, 72 hours
Method in brief: as §1

[22] = system: SK4; experiment: as above; conditions: 72 hours; for Average Area Under the Viability Curve (AUC), AUC norm value: SK4 cells (SEM subtype)
Method in brief: as §1

[23] = system: OCUM1; experiment: as above; conditions: OCUM1 cells, 72 hours
Method in brief: as §1

[24] = system: YCC11; experiment: as above; conditions: 72 hours; for Average Area Under the Viability Curve (AUC), AUC norm value: YCC11 cells (SEM subtype)
Method in brief: as §1

[25] = system: Hs746T; experiment: as above; conditions: 72 hours; for Average Area Under the Viability Curve (AUC), AUC norm value: Hs746T cells (SEM subtype)
Method in brief: as §1

[26] = system: SNU620; experiment: as above; conditions: SNU620 cells, 72 hours
Method in brief: as §1

[27] = system: KATO3; experiment: as above; conditions: KATO3 cells, 72 hours
Method in brief: as §1

[28] = system: SNU638; experiment: as above; conditions: SNU638 cells, 72 hours
Method in brief: as §1

[29] = system: NCI_N87; experiment: as above; conditions: NCI_N87 cells, 72 hours
Method in brief: as §1

[30] = system: non-SEM-type gastric cancer cell line; experiment: Cell viability drug screen, AUC summary over non-SEM-type lines; conditions: in the non-SEM-type gastric cancer cell line

## Nc1cc(C(F)(F)F)c(-c2cc(N3CCOCC3)nc(N3CCOCC3)n2)cn1 [BKM120]
[1]; 12-point dose-response
  area under the viability curve (AUC), normalized: −1.3007
[2]; 12-point dose-response
  area under the viability curve (AUC), normalized: −0.05182
[3]; 12-point dose-response
  area under the viability curve (AUC), normalized: −0.07502
[4]; 12-point dose-response
  area under the viability curve (AUC), normalized: 0.676
[5]; 12-point dose-response
  area under the viability curve (AUC), normalized: −0.4391
[6]; 12-point dose-response
  area under the viability curve (AUC), normalized: 0.2556
[7]; 12-point dose-response
  area under the viability curve (AUC), normalized: 1.23
[8]; 12-point dose-response
  area under the viability curve (AUC), normalized: 0.6866
[9]; SNU484 cells, 12-point dose-response
  area under the viability curve (AUC), normalized: −0.475
[10]; 12-point dose-response
  area under the viability curve (AUC), normalized: 0.9711
[11]; 12-point dose-response
  area under the viability curve (AUC), normalized: 0.7169
[12]; 12-point dose-response
  area under the viability curve (AUC), normalized: 1.085
[13]; 12-point dose-response
  area under the viability curve (AUC), normalized: −0.1827
[14]; AGS cells, 12-point dose-response
  area under the viability curve (AUC), normalized: −1.094
[15]; SNU668 cells, 12-point dose-response
  area under the viability curve (AUC), normalized: 0.2688
[16]; SNU1750 cells, 12-point dose-response
  area under the viability curve (AUC), normalized: −0.4392
[17]; MKN45 cells, 12-point dose-response
  area under the viability curve (AUC), normalized: 1.074
[18]; 12-point dose-response
  area under the viability curve (AUC), normalized: 3.314
[19]; SNU216 cells, 12-point dose-response
  area under the viability curve (AUC), normalized: 0.1342
[20]; 12-point dose-response
  area under the viability curve (AUC), normalized: −0.0925
[21]; 12-point dose-response
  area under the viability curve (AUC), normalized: −0.3076
[22]; SK4 cells, 12-point dose-response
  area under the viability curve (AUC), normalized: −1.247
[23]; 12-point dose-response
  area under the viability curve (AUC), normalized: 0.7561
[24]; YCC11 cells, 12-point dose-response
  area under the viability curve (AUC), normalized: −1.147
[25]; Hs746T cells, 12-point dose-response
  area under the viability curve (AUC), normalized: 0
[26]; 12-point dose-response
  area under the viability curve (AUC), normalized: −0.08823
[27]; 12-point dose-response
  area under the viability curve (AUC), normalized: 2.449
[28]; 12-point dose-response
  area under the viability curve (AUC), normalized: 0.01503
[29]; 12-point dose-response
  area under the viability curve (AUC), normalized: −0.38
[30]
  AUC value: high

## CC[C@]1(O)C[C@H]2CN(CCc3c([nH]c4ccccc34)[C@@](C(=O)OC)(c3cc4c(cc3OC)N(C=O)[C@H]3[C@@](O)(C(=O)OC)[C@H](OC(C)=O)[C@]5(CC)C=CCN6CC[C@]43[C@@H]65)C2)C1 [Vincristine]
[1]
  Average Area Under the Viability Curve (AUC), AUC norm value: −1.115
[2]
  Average Area Under the Viability Curve (AUC), AUC norm value: 0.209
[3]
  Average Area Under the Viability Curve (AUC), AUC norm value: −1.434
[4]
  Average Area Under the Viability Curve (AUC), AUC norm value: −1.3653
[5]
  Average Area Under the Viability Curve (AUC), AUC norm value: −3.156
[6]
  Average Area Under the Viability Curve (AUC), AUC norm value: −0.5253
[7]
  Average Area Under the Viability Curve (AUC), AUC norm value: 3.847
[8]
  Average Area Under the Viability Curve (AUC), AUC norm value: 5.039
[9]
  Average Area Under the Viability Curve (AUC), AUC norm value: −1.965
[10]
  Average Area Under the Viability Curve (AUC), AUC norm value: 0.9381
[11]
  Average Area Under the Viability Curve (AUC), AUC norm value: 2.298
[12]
  Average Area Under the Viability Curve (AUC), AUC norm value: 4.6576
[13]
  Average Area Under the Viability Curve (AUC), AUC norm value: −1.53
[14]
  Average Area Under the Viability Curve (AUC), AUC norm value: −1.75
[15]
  Average Area Under the Viability Curve (AUC), AUC norm value: −1.315
[16]
  Average Area Under the Viability Curve (AUC), AUC norm value: 0
[17]
  Average Area Under the Viability Curve (AUC), AUC norm value: 2.226
[18]
  Average Area Under the Viability Curve (AUC), AUC norm value: 5.036
[19]
  Average Area Under the Viability Curve (AUC), AUC norm value: 1.755
[20]
  Average Area Under the Viability Curve (AUC), AUC norm value: −0.493
[21]
  Average Area Under the Viability Curve (AUC), AUC norm value: −1.522
[22]
  Average Area Under the Viability Curve (AUC), AUC norm value: −1.283
[23]
  Average Area Under the Viability Curve (AUC), AUC norm value: 0.6548
[24]
  Average Area Under the Viability Curve (AUC), AUC norm value: −1.42
[25]
  Average Area Under the Viability Curve (AUC), AUC norm value: 1.044
[26]
  Average Area Under the Viability Curve (AUC), AUC norm value: −0.3792
[27]
  Average Area Under the Viability Curve (AUC), AUC norm value: 4.8981
[28]
  Average Area Under the Viability Curve (AUC), AUC norm value: 0.1348
[29]
  Average Area Under the Viability Curve (AUC), AUC norm value: 1.615

## O=C(CCCCCCC(=O)Nc1ccccc1)NO [Vorinostat (SAHA), Vorinostat]
[1]
  Average Area Under the Viability Curve (AUC), AUC norm value: 0.2975
[2]
  Average Area Under the Viability Curve (AUC), AUC norm value: −0.07666
[3]
  Average Area Under the Viability Curve (AUC), AUC norm value: −0.9328
[4]
  Average Area Under the Viability Curve (AUC), AUC norm value: −0.2574
[5]
  Average Area Under the Viability Curve (AUC), AUC norm value: −0.3421
[6]
  Average Area Under the Viability Curve (AUC), AUC norm value: −0.2152
[7]
  Average Area Under the Viability Curve (AUC), AUC norm value: 1.01
[8]
  Average Area Under the Viability Curve (AUC), AUC norm value: 0.2993
[9]
  Average Area Under the Viability Curve (AUC), AUC norm value: 1.041
[10]
  Average Area Under the Viability Curve (AUC), AUC norm value: 2.84
[11]
  Average Area Under the Viability Curve (AUC), AUC norm value: 0.09328
[12]
  Average Area Under the Viability Curve (AUC), AUC norm value: 1.034
[13]
  Average Area Under the Viability Curve (AUC), AUC norm value: 0.4282
[14]
  Average Area Under the Viability Curve (AUC), AUC norm value: −0.5947
[15]
  Average Area Under the Viability Curve (AUC), AUC norm value: 0.4303
[16]
  Average Area Under the Viability Curve (AUC), AUC norm value: −0.5737
[17]
  Average Area Under the Viability Curve (AUC), AUC norm value: 2.416
[18]
  Average Area Under the Viability Curve (AUC), AUC norm value: 1.843
[19]
  Average Area Under the Viability Curve (AUC), AUC norm value: −0.04999
[20]
  Average Area Under the Viability Curve (AUC), AUC norm value: −0.08142
[21]
  Average Area Under the Viability Curve (AUC), AUC norm value: −0.7875
[22]
  Average Area Under the Viability Curve (AUC), AUC norm value: 0.6434
[23]
  Average Area Under the Viability Curve (AUC), AUC norm value: −0.5166
[24]
  Average Area Under the Viability Curve (AUC), AUC norm value: −0.2285
[25]
  Average Area Under the Viability Curve (AUC), AUC norm value: −0.04774
[26]
  Average Area Under the Viability Curve (AUC), AUC norm value: 0.08594
[27]
  Average Area Under the Viability Curve (AUC), AUC norm value: 0
[28]
  Average Area Under the Viability Curve (AUC), AUC norm value: −0.4313
[29]
  Average Area Under the Viability Curve (AUC), AUC norm value: 0.8986
